Tested on: CHI2 chitinase
Test: p-nitrophenol release at […] nm, Lineweaver-Burk
Format: biochemical, Chitinolyticbacter meiyuanensis
Settings: 50 mM sodium phosphate pH 7.0, 37 °C; substrate range 50-250 μM; unit contradictory in the paper: mM in b32 and b39, µmol/L in abstract b1

Compound `CC(=O)N[C@H]1[C@H](Oc2ccc([N+](=O)[O-])cc2)O[C@H](CO)[C@@H](O)[C@@H]1O` [p-NP-GlcNAc] has a Km of 23 mM.

Reference: article PMC4926359, “Cloning, Expression and 3D Structure Prediction of Chitinase from Chitinolyticbacter meiyuanensis SYBC-H1” (International Journal of Molecular Sciences, 2016)
